In one assay the test system is DLD-1 BRCA2(−/−) cells. Description: Cell growth inhibition assay (CellTiter-Glo), DLD-1 BRCA2(−/−). Particulars: Homo sapiens, DLD-1, 168 h; 200 cells/well, 7 days, CellTiter Glo 2.0; read-out: DLD-1 BRCA2(−/−) pEC50 (converted). The class given is cell-based. The procedure: (§1) Cell proliferation was measured through the cell viability assay using DLD-1 BRCA2(−/−) and parental isogenic pair and MDA-MB-436 (mutated BRCA1) cell lines. The CellTiter-Glo (CTG) based cell viability assay is designed to determine the number of viable cells in the culture because of compound effect, by quantifying ATP, which indicates the presence of metabolically active cells.
(§2) DLD-1 BRCA2(−/−) and parental isogenic pair were cultured in RPMI 1640 supplemented with […] (FBS), and […] cells were cultured in DMEM supplemented with 10% FBS. Both were cultured at 37° C. with […]. Invention compounds were distributed to the 384 well plate (Corning, 3764) using Echo acoustic liquid handler to form a 1:3 serially diluted final concentration with top dose of 10 or 30 μM. The cells were seeded into the plate in the density of 50 cells/well (DLD-1 parental), 200 cells/well (DLD-1 BRCA2−/−), or 500 cells/well (MDA-MB-436). After a short spun, the cells were cultured in a well moisturized incubator at 37° C. with 5% CO2 for 7 days without disturbance. The cell viability was measured by CellTiter Glo 2.0 assay kit (Promega, G9243), and growth inhibition rate was calculated and plotted against final compound concentration, and the data were fitted in Xfit to generate IC50 values.

The test system of the next assay is DLD-1 parental cells. Description: Cell growth inhibition assay (CellTiter-Glo), DLD-1 parental. The note with it: Homo sapiens, DLD-1, 168 h; 50 cells/well, 7 days, CellTiter Glo 2.0; read-out: DLD-1 parental pEC50 (converted). It counts as cell-based. The procedure:
as §1, §2

Assay [1] concerns MDA-MB-436 (mutated BRCA1) cells. Description: Cell growth inhibition assay (CellTiter-Glo), MDA-MB-436. It counts as cell-based. Particulars: Homo sapiens, MDA-MB-436, 168 h, 500 cells/well, 7 days, CellTiter Glo 2.0; read-out: MDA-MB-436 pEC50 (converted). On the procedure:
as §1, §2
In general terms: In ATP-based viability assays light output follows the ATP content of the culture.

For the next assay, the target named is T1, PARP1 (Homo sapiens, UniProt P09874).
T1 construct: made in house
Description: Biochemical fluorescent polarization (FP) assay, displacement of PARPi-FL, PARP1. Particulars: 20 nM protein, 3 nM PARPi-FL, 4 h at room temperature; for IC50: read-out: FP PARP1 pIC50 (converted). It counts as binding. On the procedure:
(§3) Compounds were characterized using an assay measuring the displacement of a commercially available fluorescently labeled PARP 1/2 inhibitor (PARPi-FL, Tocris Biosciences, #6461) as exemplified in assays performed in WO2014/064149 and WO2021/013735A1. The assay was performed utilizing the following method: Compounds were dissolved in DMSO an Echo550 liquid handler was utilized to make serial dilations in the desired concentration range in Optiplate-384F plates. 100% DMSO was used for the high (with protein) and low (without protein) control samples. 20 nL of compound or DMSO alone was added to individual assay plate wells. PARP1 and PARP2 protein were expressed, purified, and diluted in assay buffer containing 50 mM Tris pH 8.0, 0.001% Triton X-100, 10 mM MgCl2, 150 mM NaCl to a final concentration of 20 nM. The PARPi-FL was then added at a final concentration of 3 nM. The assay plate was centrifuged at 1000 rpm for 1 min and incubated for 4 h at room temperature. […] [formula]

The next assay deals with T2, PARP2 (Homo sapiens, UniProt Q9UGN5).
T2 construct: made in house
As to the kind of experiment: Biochemical fluorescent polarization (FP) assay, displacement of PARPi-FL, PARP2. The class given is binding. The note with it: 20 nM protein, 3 nM PARPi-FL, 4 h at room temperature; read-out: FP PARP2 pIC50 (converted). On the procedure: as §3

T1 sequence (P09874 whole entry): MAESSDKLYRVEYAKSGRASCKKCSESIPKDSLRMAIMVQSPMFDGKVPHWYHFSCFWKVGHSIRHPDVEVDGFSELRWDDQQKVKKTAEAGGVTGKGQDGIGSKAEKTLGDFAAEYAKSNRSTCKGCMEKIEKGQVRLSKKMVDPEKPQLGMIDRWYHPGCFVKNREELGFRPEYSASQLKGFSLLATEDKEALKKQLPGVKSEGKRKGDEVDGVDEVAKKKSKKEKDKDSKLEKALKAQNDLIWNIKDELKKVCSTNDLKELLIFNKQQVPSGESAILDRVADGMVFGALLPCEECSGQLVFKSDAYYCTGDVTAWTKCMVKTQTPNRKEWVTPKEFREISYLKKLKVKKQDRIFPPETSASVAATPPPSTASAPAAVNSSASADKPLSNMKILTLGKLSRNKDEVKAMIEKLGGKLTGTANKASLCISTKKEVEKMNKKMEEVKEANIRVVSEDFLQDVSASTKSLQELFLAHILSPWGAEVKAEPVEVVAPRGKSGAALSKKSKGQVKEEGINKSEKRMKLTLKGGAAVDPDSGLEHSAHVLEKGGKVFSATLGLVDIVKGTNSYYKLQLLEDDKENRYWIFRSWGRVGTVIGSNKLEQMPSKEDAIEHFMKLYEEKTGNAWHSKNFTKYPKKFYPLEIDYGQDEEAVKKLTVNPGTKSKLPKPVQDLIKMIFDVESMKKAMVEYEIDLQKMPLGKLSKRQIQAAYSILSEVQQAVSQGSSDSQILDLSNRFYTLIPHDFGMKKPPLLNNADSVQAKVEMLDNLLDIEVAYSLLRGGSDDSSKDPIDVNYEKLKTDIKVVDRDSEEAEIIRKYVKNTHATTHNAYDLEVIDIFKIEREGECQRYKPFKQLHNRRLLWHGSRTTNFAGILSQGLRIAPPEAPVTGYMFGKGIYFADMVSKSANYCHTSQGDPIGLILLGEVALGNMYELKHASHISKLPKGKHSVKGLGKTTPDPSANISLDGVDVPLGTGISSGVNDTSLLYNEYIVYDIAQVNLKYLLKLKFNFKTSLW
T2 sequence (Q9UGN5 whole entry): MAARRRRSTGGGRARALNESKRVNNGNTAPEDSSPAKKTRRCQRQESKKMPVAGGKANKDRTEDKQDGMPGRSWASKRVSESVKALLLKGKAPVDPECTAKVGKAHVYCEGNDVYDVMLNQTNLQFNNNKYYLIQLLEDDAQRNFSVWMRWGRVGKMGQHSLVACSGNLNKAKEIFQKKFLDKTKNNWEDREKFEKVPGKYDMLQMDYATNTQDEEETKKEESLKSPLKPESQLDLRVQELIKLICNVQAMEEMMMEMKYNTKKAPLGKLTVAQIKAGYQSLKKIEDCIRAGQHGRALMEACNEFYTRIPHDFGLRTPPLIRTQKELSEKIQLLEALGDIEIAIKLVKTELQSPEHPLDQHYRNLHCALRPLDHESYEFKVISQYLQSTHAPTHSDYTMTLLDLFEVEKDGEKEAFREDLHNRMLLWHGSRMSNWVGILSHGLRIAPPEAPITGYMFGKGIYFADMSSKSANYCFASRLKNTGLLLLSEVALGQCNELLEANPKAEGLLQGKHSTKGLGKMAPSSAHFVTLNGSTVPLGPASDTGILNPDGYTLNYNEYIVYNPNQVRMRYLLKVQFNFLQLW

With `CCc1cc2ncc(CN3CCN(c4ccc(C#N)nc4)CC3)cc2[nH]c1=O` [Example 3, 5-{4-[(7-ethyl-6-oxo-5H-1,5-naphthyridin-3-yl)methyl]piperazin-1-yl}pyridine-2-carbonitrile], the values for the EC50 (in the assay on DLD-1 BRCA2(−/−) cells; with DLD-1 parental cells; in assay [1]) were 3.16 nM, over 31.6 µM and 2.51 nM, respectively.

In the case of `Cc1cc2ncc(CN3CCN(c4ccc(C#N)cn4)CC3)cc2[nH]c1=O` [Example 6], the IC50 is 5.01 nM at PARP1 and 5.01 µM at PARP2. The EC50 with DLD-1 BRCA2(−/−) cells is 2.51 nM; in the assay on DLD-1 parental cells it was over 31.6 µM; in assay [1], 2.51 nM.

For the compound `Cc1c(Cl)c(=O)[nH]c2cc(CN3CCN(c4ccc(C#N)cn4)CC3)cnc12` [Example 36, 6-{4-[(7-chloro-8-methyl-6-oxo-5H-1,5-naphthyridin-3-yl)methyl]piperazin-1-yl}pyridine-3-carbonitrile], the IC50 on PARP1 is 5.01 nM; at PARP2 it was 2 µM. Besides, the EC50 was 1.26 nM in the assay on DLD-1 BRCA2(−/−) cells and 1 nM in assay [1].

For the compound `[2H]C([2H])(c1cnc2cc(C)c(=O)[nH]c2c1)N1CCN(c2ccc(C#N)cn2)CC1` [Example 37], the “FP PARP1 pIC50” value at PARP1 turned out to be 8.5. Moreover, the IC50 on PARP2 was over 100 µM. In addition, the EC50 in the assay with DLD-1 BRCA2(−/−) cells is 3.16 nM; in assay [1], 1.58 nM.

On to `CCc1cc2ncc(CN3CCN(c4ccc(C#N)c(F)c4)CC3)cc2[nH]c1=O` [Example 38], for which the results for the IC50 on PARP1 and at PARP2 were 5.01 nM and 0.501 µM, respectively. The EC50 with DLD-1 BRCA2(−/−) cells was 0.631 nM; in assay [1], 0.501 nM.

Turning to `CCc1cc2ncc(CN3CCN(c4ccc(C#N)cc4OC)CC3)cc2[nH]c1=O` [Example 39], the IC50 on PARP1 was 6.31 nM; at PARP2, over 100 µM. For the same compound, the values for the EC50 (in the assay on DLD-1 BRCA2(−/−) cells; in assay [1]) were 2 nM and 1.26 nM, respectively.

On to `CCc1cc2ncc(CN3CCN(c4ccc(F)cc4C#N)CC3)cc2[nH]c1=O` [Example 40], for which the IC50 is 6.31 nM on PARP1 and 12.6 µM at PARP2. For the same compound, the EC50 in the assay with DLD-1 BRCA2(−/−) cells was 1 nM; in assay [1], 0.794 nM.

Turning to `CCc1cc2ncc(CN3CCN(c4cc(F)c(C#N)cc4F)CC3)cc2[nH]c1=O` [Example 41], the IC50 is 12.6 nM at PARP1 and 2 µM on PARP2. Further, the EC50 was 0.794 nM in the assay on DLD-1 BRCA2(−/−) cells and 1 nM in assay [1].

For `Cc1c(C(F)F)c(=O)[nH]c2cc(CN3CCN(c4ccc(C#N)cn4)CC3)cnc12` [Example 42, 6-(4-{[7-(difluoromethyl)-8-methyl-6-oxo-5H-1,5-naphthyridin-3-yl]methyl}piperazin-1-yl)pyridine-3-carbonitrile], the figures for the IC50 at PARP1 and on PARP2 were 50.1 nM and 0.316 µM, respectively. Further, the EC50 was 2 nM in the assay on DLD-1 BRCA2(−/−) cells and 1 nM in assay [1].

Regarding `Cc1cc2ncc(CN3CCN(c4ccc(C#N)cc4)CC3)cc2[nH]c1=O` [Example 43], the results for the IC50 on PARP1 and at PARP2 were 5.01 nM and 6.31 µM, respectively. Also, the values for the EC50 (with DLD-1 BRCA2(−/−) cells; in assay [1]) were 3.16 nM and 2.51 nM, respectively.

`Cc1cc2ncc(CN3CCN(c4ccc(C#N)c(F)c4)CC3)cc2[nH]c1=O` [Example 44]: the IC50 was 10 nM on PARP1 and 3.16 µM at PARP2. In addition, the EC50 in the assay on DLD-1 BRCA2(−/−) cells is 2.51 nM; in assay [1], 1.58 nM.

Take `N#Cc1ccc(N2CCN(Cc3cnc4cc(C(F)F)c(=O)[nH]c4c3)CC2)nc1` [Example 48, 6-(4-{[7-(difluoromethyl)-6-oxo-5H-1,5-naphthyridin-3-yl]methyl}piperazin-1-yl)pyridine-3-carbonitrile]: the IC50 on PARP1 was 3.98 nM; at PARP2, 1.26 µM. Further, the EC50 (in the assay with DLD-1 BRCA2(−/−) cells; in assay [1]) was 1 nM each time.

On to `CCc1cc2ncc(CN3CCN(c4ccc(C#N)cc4C#N)CC3)cc2[nH]c1=O` [Example 52], for which the IC50 on PARP1 was 25.1 nM; at PARP2 it was 12.6 µM. Also, the EC50 with DLD-1 BRCA2(−/−) cells is 0.794 nM; in assay [1], 0.631 nM.

Consider `Cc1cc2ncc(CN3CCN(c4ccc(C#N)nc4Cl)CC3)cc2[nH]c1=O` [Example 55], for which the IC50 at PARP1 is 7.94 nM; at PARP2 it was over 100 µM. Besides, the EC50 in the assay on DLD-1 BRCA2(−/−) cells was 1.26 nM; in assay [1], 1 nM.

Consider `N#Cc1ccc(N2CCN(Cc3cnc4cc(Cl)c(=O)[nH]c4c3)CC2)nc1` [Example 57], for which the IC50 at PARP1 is 5.01 nM; on PARP2, 50.1 µM. The values for the EC50 (with DLD-1 BRCA2(−/−) cells; in the assay with DLD-1 parental cells; in assay [1]) were 2.51 nM, 20 µM and 2 nM, respectively.

Regarding `Cc1cc2ncc(CN3CCN(c4cc(F)c(F)cn4)CC3)cc2[nH]c1=O` [Example 58], the IC50 at PARP1 was 12.6 nM; on PARP2, 15.8 µM. For the same compound, the EC50 (in the assay with DLD-1 BRCA2(−/−) cells; in assay [1]) was 7.94 nM in each case.

With `N#Cc1ccc(N2CCN(Cc3cnc4cc(C(F)F)c(=O)[nH]c4c3)CC2)cc1` [Example 59], the figures for the IC50 at PARP1 and at PARP2 were 6.31 nM and over 100 µM, respectively. For the same compound, the EC50 was 1.26 nM in the assay with DLD-1 BRCA2(−/−) cells and 1 nM in assay [1].

Consider `N#Cc1ccc(N2CCN(Cc3cnc4cc(Br)c(=O)[nH]c4c3)CC2)nc1` [Example 60, 6-{4-[(7-bromo-6-oxo-5H-1,5-naphthyridin-3-yl)methyl]piperazin-1-yl}pyridine-3-carbonitrile], for which the IC50 was 6.31 nM on PARP1 and 2 µM at PARP2. Also, the values for the EC50 (in the assay on DLD-1 BRCA2(−/−) cells; in assay [1]) were 1.58 nM and 1.26 nM, respectively.

As to `N#Cc1ccc(N2CCN(Cc3cnc4cc(Cl)c(=O)[nH]c4c3)CC2)c(F)n1` [Example 61], the IC50 at PARP1 was 6.31 nM; at PARP2, over 100 µM. The values for the EC50 (in the assay on DLD-1 BRCA2(−/−) cells; in assay [1]) were 3.16 nM and 2 nM, respectively.

`[2H]C([2H])(c1cnc2cc(C(F)F)c(=O)[nH]c2c1)N1CCN(c2ccc(C#N)cn2)CC1` [Example 63]: the figures for the IC50 on PARP1 and at PARP2 were 15.8 nM and 0.794 µM, respectively. Besides, the EC50 in the assay with DLD-1 BRCA2(−/−) cells is 1.58 nM; in assay [1], 1.26 nM.

For the compound `CCc1cc2ncc(CN3CCC(c4ccc(C#N)cn4)CC3)cc2[nH]c1=O` [Example 64], the IC50 on PARP1 is 5.01 nM; at PARP2, over 100 µM. Besides, the EC50 in the assay with DLD-1 BRCA2(−/−) cells is 5.01 nM; in assay [1], 2 nM.

Take `N#Cc1ccc(N2CCN(Cc3cnc4cc(Cl)c(=O)[nH]c4c3)CC2)cc1` [Example 66]: the IC50 was 5.01 nM on PARP1 and over 100 µM on PARP2. Further, the values for the EC50 (with DLD-1 BRCA2(−/−) cells; in assay [1]) were 2 nM and 1.58 nM, respectively.

Consider `[2H]C([2H])(c1cnc2cc(CC)c(=O)[nH]c2c1)N1CCN(c2ccc(F)cc2C#N)CC1` [Example 67], for which the values for the IC50 on PARP1 and at PARP2 were 15.8 nM and 25.1 µM, respectively. For the same compound, the EC50 (in the assay on DLD-1 BRCA2(−/−) cells; in assay [1]) was 1.58 nM each time.

For the compound `N#Cc1ccc(N2CCN(Cc3cnc4cc(Cl)c(=O)[nH]c4c3)CC2)c(Cl)n1` [Example 77], the results for the IC50 on PARP1 and at PARP2 were 6.31 nM and over 100 µM, respectively. Besides, the EC50 (in the assay with DLD-1 BRCA2(−/−) cells; in assay [1]) was 0.794 nM throughout.

As for `Cc1cc2ncc(CN3CCN(c4ccc(C#N)nc4F)CC3)cc2[nH]c1=O` [Example 78], the IC50 on PARP1 was 6.31 nM; at PARP2 it was over 100 µM. Besides, the EC50 was 3.98 nM in the assay on DLD-1 BRCA2(−/−) cells and 3.16 nM in assay [1].

As to `Cc1cc2c(F)cc(CN3CCN(c4ccc(C#N)cn4)CC3)cc2[nH]c1=O` [Example 79], the IC50 was 10 nM at PARP1 and 12.6 µM on PARP2. Besides, the EC50 is 7.94 nM with DLD-1 BRCA2(−/−) cells and 5.01 nM in assay [1].

Take `Cc1nc2ccc(CN3CCN(c4ccc(C#N)cn4)CC3)cc2[nH]c1=O` [Example 84]: the IC50 on PARP1 was 10 nM; at PARP2, 50.1 µM. In addition, the values for the EC50 (with DLD-1 BRCA2(−/−) cells; in assay [1]) were 6.31 nM and 7.94 nM, respectively.

These data come from US12384780B2, “PARP1 inhibitors and uses thereof” (XinThera, Inc., priority 2022, dated 2025).
